Consider three compounds from ChEMBL document CHEMBL5325426, “Structure-based discovery of potent USP28 inhibitors derived from Vismodegib” (Eur J Med Chem, 2023).

Active and inactive are the calls of the source. No cut-off for these calls is given here.

One experiment deals with T1, Ubiquitin carboxyl-terminal hydrolase 2 (Homo sapiens) (UniProt O75604).
T1 sequence (whole entry): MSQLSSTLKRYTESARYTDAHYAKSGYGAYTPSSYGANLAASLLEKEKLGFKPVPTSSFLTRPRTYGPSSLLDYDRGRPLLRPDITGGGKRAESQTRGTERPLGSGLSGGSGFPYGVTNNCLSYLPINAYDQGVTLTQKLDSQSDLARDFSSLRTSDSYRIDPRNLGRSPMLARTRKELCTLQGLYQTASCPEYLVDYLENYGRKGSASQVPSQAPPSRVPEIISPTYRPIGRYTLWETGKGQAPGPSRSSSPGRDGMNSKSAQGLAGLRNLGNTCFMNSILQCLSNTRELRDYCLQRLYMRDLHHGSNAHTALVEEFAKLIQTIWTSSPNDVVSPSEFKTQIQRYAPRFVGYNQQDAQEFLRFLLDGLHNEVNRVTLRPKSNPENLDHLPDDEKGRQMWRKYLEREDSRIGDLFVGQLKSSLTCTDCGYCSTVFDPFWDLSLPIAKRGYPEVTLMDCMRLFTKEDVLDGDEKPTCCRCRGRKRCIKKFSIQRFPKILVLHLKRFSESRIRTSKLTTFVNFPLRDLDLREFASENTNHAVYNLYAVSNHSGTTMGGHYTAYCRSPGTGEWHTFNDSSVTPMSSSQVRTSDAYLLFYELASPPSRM
Put plainly: Inhibition of USP2 (258 to 605 residues) (unknown origin) expressed in Escherichia coli BL21 (DE3) using Ub-AMC as substrate at 5 uM by fluorescence based analysis.
Settings: not given
In the case of `CS(=O)(=O)c1ccc(C(=O)Nc2ccc(Cl)c(-c3ccc4c(c3)CNC4)c2)c(Cl)c1`, the inhibition result was “Active”.
Take `CS(=O)(=O)c1ccc(C(=O)Nc2ccc(Cl)c(-c3ccc4c(c3)CCNC4)c2)c(Cl)c1`: the inhibition result is “Active”.
With `CS(=O)(=O)c1ccc(C(=O)Nc2ccc(Cl)c(-c3ccc(C4(N)CC4)cc3)c2)c(Cl)c1`, the inhibition result is “Active”.

In a further experiment the test system is LS174T. The experiment can be described thus: Antiproliferative activity against human LS174T cells assessed as effect on Bcl-2 protein level at 20 to 60 uM incubated for 1 day by western blotting analysis. Type of experiment: functional, cell-based. To be noted: dose 20-60 µM. (In general: Immunoblotting shows a protein as a band on a membrane.)
For the compound `CS(=O)(=O)c1ccc(C(=O)Nc2ccc(Cl)c(-c3ccc4c(c3)CNC4)c2)c(Cl)c1`, the outcome was inactive.
Take `CS(=O)(=O)c1ccc(C(=O)Nc2ccc(Cl)c(-c3ccc4c(c3)CCNC4)c2)c(Cl)c1`: the outcome was inactive.
Regarding `CS(=O)(=O)c1ccc(C(=O)Nc2ccc(Cl)c(-c3ccc(C4(N)CC4)cc3)c2)c(Cl)c1`, the outcome was inactive.

The target in a further experiment is T2, Ubiquitin carboxyl-terminal hydrolase 8 (Homo sapiens) (UniProt P40818).
T2 sequence (whole entry): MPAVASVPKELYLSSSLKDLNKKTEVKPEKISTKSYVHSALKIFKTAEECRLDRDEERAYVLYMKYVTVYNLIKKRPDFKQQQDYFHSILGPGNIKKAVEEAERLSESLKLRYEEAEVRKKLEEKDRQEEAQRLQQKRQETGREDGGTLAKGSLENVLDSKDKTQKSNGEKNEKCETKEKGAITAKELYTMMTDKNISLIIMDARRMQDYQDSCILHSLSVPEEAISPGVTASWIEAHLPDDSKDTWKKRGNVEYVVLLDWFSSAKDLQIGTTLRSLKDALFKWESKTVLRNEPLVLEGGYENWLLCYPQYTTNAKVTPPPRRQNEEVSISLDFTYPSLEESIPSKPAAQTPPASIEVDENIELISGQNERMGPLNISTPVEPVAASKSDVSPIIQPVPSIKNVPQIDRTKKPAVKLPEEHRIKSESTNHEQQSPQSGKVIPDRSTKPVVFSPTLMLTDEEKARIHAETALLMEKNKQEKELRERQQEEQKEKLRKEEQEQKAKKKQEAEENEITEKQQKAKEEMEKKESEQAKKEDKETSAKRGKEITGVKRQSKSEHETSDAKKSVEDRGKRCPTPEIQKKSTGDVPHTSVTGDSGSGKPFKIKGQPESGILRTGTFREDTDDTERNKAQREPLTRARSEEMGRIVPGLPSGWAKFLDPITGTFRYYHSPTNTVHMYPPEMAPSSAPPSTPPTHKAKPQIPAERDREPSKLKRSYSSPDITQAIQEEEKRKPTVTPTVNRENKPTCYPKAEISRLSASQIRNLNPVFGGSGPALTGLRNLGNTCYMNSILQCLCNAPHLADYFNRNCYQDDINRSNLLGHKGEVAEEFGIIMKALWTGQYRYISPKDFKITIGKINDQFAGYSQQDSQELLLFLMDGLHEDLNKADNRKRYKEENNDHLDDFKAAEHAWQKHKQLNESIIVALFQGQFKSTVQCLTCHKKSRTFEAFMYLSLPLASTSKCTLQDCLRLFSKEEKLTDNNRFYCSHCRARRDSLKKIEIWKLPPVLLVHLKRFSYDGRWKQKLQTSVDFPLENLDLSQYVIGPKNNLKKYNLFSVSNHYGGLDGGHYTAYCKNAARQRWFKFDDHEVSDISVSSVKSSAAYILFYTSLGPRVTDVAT
Put plainly: Inhibition of USP8 (734 to 1110 residues) (unknown origin) expressed in Escherichia coli BL21 (DE3) using Ub-AMC as substrate at 5 uM by fluorescence based analysis.
Settings: not given
As to `CS(=O)(=O)c1ccc(C(=O)Nc2ccc(Cl)c(-c3ccc4c(c3)CNC4)c2)c(Cl)c1`, the inhibition result was “Active”.
In the case of `CS(=O)(=O)c1ccc(C(=O)Nc2ccc(Cl)c(-c3ccc4c(c3)CCNC4)c2)c(Cl)c1`, the inhibition entry is “Active”.
The same measure, in the same setting: then `CS(=O)(=O)c1ccc(C(=O)Nc2ccc(Cl)c(-c3ccc(C4(N)CC4)cc3)c2)c(Cl)c1`, with “Active”.

The target in a further experiment is T3, Ubiquitin carboxyl-terminal hydrolase 25 (Homo sapiens) (UniProt Q9UHP3).
T3 sequence (whole entry): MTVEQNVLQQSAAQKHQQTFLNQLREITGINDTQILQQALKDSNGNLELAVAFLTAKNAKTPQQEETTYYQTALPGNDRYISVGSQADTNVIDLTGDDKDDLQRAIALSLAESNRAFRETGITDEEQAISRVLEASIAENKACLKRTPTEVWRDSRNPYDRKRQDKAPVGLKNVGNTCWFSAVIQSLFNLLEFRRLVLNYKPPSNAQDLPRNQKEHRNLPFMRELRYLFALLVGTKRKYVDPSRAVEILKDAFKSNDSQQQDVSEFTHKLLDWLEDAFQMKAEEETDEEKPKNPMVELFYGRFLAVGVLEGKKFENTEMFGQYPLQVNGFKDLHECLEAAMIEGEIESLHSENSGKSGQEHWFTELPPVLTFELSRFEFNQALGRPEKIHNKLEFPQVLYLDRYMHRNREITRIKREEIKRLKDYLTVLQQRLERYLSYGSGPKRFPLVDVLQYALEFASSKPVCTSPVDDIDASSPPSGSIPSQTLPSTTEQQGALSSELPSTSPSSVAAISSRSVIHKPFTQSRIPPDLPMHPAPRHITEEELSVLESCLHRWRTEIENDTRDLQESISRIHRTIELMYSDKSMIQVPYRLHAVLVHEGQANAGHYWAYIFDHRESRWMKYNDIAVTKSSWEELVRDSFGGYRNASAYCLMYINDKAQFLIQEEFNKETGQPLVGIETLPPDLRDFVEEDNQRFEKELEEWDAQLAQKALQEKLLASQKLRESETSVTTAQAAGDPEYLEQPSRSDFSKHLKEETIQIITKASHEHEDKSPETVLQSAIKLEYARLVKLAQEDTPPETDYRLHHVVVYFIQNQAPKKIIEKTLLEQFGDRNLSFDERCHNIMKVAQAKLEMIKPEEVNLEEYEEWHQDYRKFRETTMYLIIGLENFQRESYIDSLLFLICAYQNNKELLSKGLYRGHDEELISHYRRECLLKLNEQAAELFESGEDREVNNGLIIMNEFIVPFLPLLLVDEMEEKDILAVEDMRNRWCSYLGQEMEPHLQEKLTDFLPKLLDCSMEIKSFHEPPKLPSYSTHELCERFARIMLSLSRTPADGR
Put plainly: Inhibition of USP25 (unknown origin) expressed in Escherichia coli BL21 (DE3) using Ub-AMC as substrate at 5 uM by fluorescence based analysis.
Settings: not given
On to `CS(=O)(=O)c1ccc(C(=O)Nc2ccc(Cl)c(-c3ccc4c(c3)CNC4)c2)c(Cl)c1`, for which the inhibition result is “Active”.
Take `CS(=O)(=O)c1ccc(C(=O)Nc2ccc(Cl)c(-c3ccc4c(c3)CCNC4)c2)c(Cl)c1`: the inhibition result is “Active”.
On the same count and under the same terms, in the case of `CS(=O)(=O)c1ccc(C(=O)Nc2ccc(Cl)c(-c3ccc(C4(N)CC4)cc3)c2)c(Cl)c1` it was “Active”.
